Like-named read-outs stand apart in the source and are kept apart here.
How the values were obtained:
[1] = Scavenging effects on hydroxyl free radicals (Fenton reaction, ESR)
[2] = system: cerebral basilar artery; experiment: Experiment on cerebral basilar artery (isolated artery on transducer, KCl as vasoconstrictor); settings: for Effect on the basilar artery (dilation): 50 μl solution added to the bath
Method: Take 50 μl solutions to dissolved in 5 ml saline again. (2). Remove the cerebrum and cerebellum from the fresh brain, and get the middle part of the basilar artery (3). Adjust the transducer and amplifier to make pointer return to zero (4). Hang the basilar artery on the transducer and immerse it in the bath.

[3] = system: rat thoracic aorta; settings: 0.04 mM
Text: Take thoracic aorta from rat, remove the connective tissue and blood, immerse the aorta into the Krebs-Henselelt liquid and ventilate oxygen, hang the aorta on the transducer, and assay its radial tension.

[4] = system: rat hippocampus neuronal cells; experiment: Proliferation of rat hippocampus neuronal cells (MTT staining, OD); type: cell-based; settings: 7 days
Method: 1. Get hippocampus neuronal cells from rat embryo and do preliminary cell culture.
2. Incubate the cells for 7 days at different concentration (3 or 5 parallel holes for each group).
3. Do MTT staining and measure OD value.

[5] = system: nicotinic receptors (SY-SH5Y human neuroblastoma cell); settings: SY-SH5Y cells treated three days, 1 μM up to 100 μM
Method: (§1) In the experiments, we used two different cell lines, SY-SH5Y and M10. SY-SH5Y is human neuroblastoma cell which expresses natural nicotinic and muscarinic receptors, and M10 cell expresses the recombinant a4b2 subtype of chicken nicotinic receptor. We treated both cell lines with Compound III for three days with different concentrations from 1 μM up to 100 μM, and measured the amount of nAChRs.

[6] = system: recombinant a4b2 subtype of chicken nicotinic receptor (M10 cells); settings: M10 cells treated three days, 1 μM up to 100 μM
Method: as §1

[7] = system: cerebral blood flow of rat; settings: for Mean of rCBF / Rate of rCBF increase / rCBF Rat 1 / rCBF Rat 2 / rCBF Rat 3 / rCBF Rat 4: 50 μg/Kg intravenous
Method: Method: Hydrogen-clearing method
Instrument: LS-III Blood Flow Meter
1. Anesthetize the rat with 10% chloral hydrate, separate the general vein of thigh and intubate to prepare to inject Compound III.
2. Open a window in the parietal lobe of dermal epithelium with cranial drill and lay up hydrogen electrode.
3. After operation, collect the animal with the Blood Follow Meter and computer, steady for 30 minutes and begin to measure the rCBF (regional cerebral blood flow).

## COC1(CC[C@H](C)CO[C@@H]2O[C@H](CO)[C@@H](O)[C@H](O)[C@H]2O)O[C@H]2C[C@H]3[C@@H]4CC[C@@H]5C[C@@H](O[C@@H]6O[C@H](CO)[C@H](O)[C@H](O)[C@H]6O[C@@H]6O[C@H](CO)[C@@H](O)[C@H](O)[C@H]6O)CC[C@]5(C)[C@H]4CC[C@]3(C)[C@H]2[C@@H]1C (stereo partly drawn) [Compound IV, (25S)-26-0-β-D-glucopyranosyl-22-methoxy-5β-furost-3β,26-diol-3-0-β-D-glucopyranosyl(1→2)-β-D-galactopyranoside]
[1]
  Scavenging of hydroxyl free radicals produced by Fenton reaction (in words): could scavenge
  Scavenging rate: 33.3%
[2]
  Effect on the basilar artery (dilation): no obvious effect

## C[C@@H](CCC1(O)O[C@H]2C[C@H]3[C@@H]4CC[C@@H]5C[C@@H](O[C@@H]6O[C@H](CO)[C@H](O)[C@H](O)[C@H]6O[C@@H]6O[C@H](CO)[C@@H](O)[C@H](O)[C@H]6O)CC[C@]5(C)[C@H]4CC[C@]3(C)[C@H]2[C@@H]1C)CO[C@@H]1O[C@H](CO)[C@@H](O)[C@H](O)[C@H]1O (stereo partly drawn) [Compound III, (25S)-26-β-D-glucopyranosyl-22-hydroxy-5β-furost-3β,26-diol-3-0-β-D-glucopyranosyl(1→2)-β-D-galactopyranoside]
[1]
  Inhibitory rate (hydroxyl free radicals): 56.7%
  Scavenging effect relative to the other compounds: most effective
  Scavenging of hydroxyl free radicals produced by Fenton reaction (in words): could scavenge
  Scavenging rate: 56.7%
[2]
  Effect on the basilar artery (dilation): dilated slightly
[2]; after 50 μl compound added to the bath
  Contraction of the basilar artery when adding the vasoconstrictor KCl: did not contract again
[2]; at 10^−5 g/ml (0.01 mM)
  Dilation of cerebral vascular and resistance to contraction caused by vasoconstrictor: could dilate cerebral vascular and resist the contraction caused by vasoconstrictor
[2]; same experimental conditions
  Effective concentration compared with positive Ligustrazine: two orders of magnitude lower
[3]
  Inhibition of contraction of rat aorta caused by KCl: could restrain the contraction
[4]; 0.1 μg/ml
  Mean of OD: 0.0773
  Proliferation rate: 23.88%
[4]; 1 μg/ml
  Mean of OD: 0.0663
  Proliferation rate: 6.25%
[4]; 10 μg/ml
  Mean of OD: 0.0860
  Proliferation rate: 37.82%
[4]; 50 μg/ml
  Mean of OD: 0.0807
  Proliferation rate: 29.33%
[4]; 100 μg/ml
  Mean of OD: 0.0750
  Proliferation rate: 20.19%
[4]; 500 μg/ml
  Mean of OD: 0.0903
  Proliferation rate: 44.71%
[4]; 1000 μg/ml
  Mean of OD: 0.0673
  Proliferation rate: 7.853%
[5]
  Number of nAChRs: significantly up-regulate
[6]
  Number of nAChRs: significantly up-regulate
[7]; 1 min
  Mean of rCBF: 141562.5 µL/min/mg
  Rate of rCBF increase: 7.806%
  rCBF Rat 1: 133300 µL/min/mg
  rCBF Rat 2: 150050 µL/min/mg
  rCBF Rat 3: 139550 µL/min/mg
  rCBF Rat 4: 143350 µL/min/mg
[7]; 10 min
  Mean of rCBF: 149785 µL/min/mg
  Rate of rCBF increase: 14.07%
  rCBF Rat 1: 147990 µL/min/mg
  rCBF Rat 2: 143410 µL/min/mg
  rCBF Rat 3: 162100 µL/min/mg
  rCBF Rat 4: 145640 µL/min/mg
[7]; 20 min
  Mean of rCBF: 148405 µL/min/mg
  Rate of rCBF increase: 13.02%
  rCBF Rat 1: 158460 µL/min/mg
  rCBF Rat 2: 136330 µL/min/mg
  rCBF Rat 3: 177590 µL/min/mg
  rCBF Rat 4: 121240 µL/min/mg
[7]; 30 min
  Mean of rCBF: 163497.5 µL/min/mg
  Rate of rCBF increase: 24.51%
  rCBF Rat 1: 164610 µL/min/mg
  rCBF Rat 2: 182960 µL/min/mg
  rCBF Rat 3: 171420 µL/min/mg
  rCBF Rat 4: 135000 µL/min/mg
[7]; 40 min
  Mean of rCBF: 164670 µL/min/mg
  Rate of rCBF increase: 25.4%
  rCBF Rat 1: 176900 µL/min/mg
  rCBF Rat 2: 202460 µL/min/mg
  rCBF Rat 3: 165940 µL/min/mg
  rCBF Rat 4: 113380 µL/min/mg
[7]; 50 min
  Mean of rCBF: 166147.5 µL/min/mg
  Rate of rCBF increase: 26.53%
  rCBF Rat 1: 176770 µL/min/mg
  rCBF Rat 2: 193570 µL/min/mg
  rCBF Rat 3: 163080 µL/min/mg
  rCBF Rat 4: 131170 µL/min/mg
[7]; 50 μg/kg in vivo (text summary, time not stated)
  Increase of the rCBF of rat: 26.5%
[7]; administered intravenously at the effective concentration (50 μg/kg)
  Hemolysis: no hemolysis

## CC1=C(CC[C@H](C)CO[C@@H]2O[C@H](CO)[C@@H](O)[C@H](O)[C@H]2O)O[C@H]2C[C@H]3[C@@H]4CC[C@@H]5C[C@@H](O[C@@H]6O[C@H](CO)[C@H](O)[C@H](O)[C@H]6O[C@@H]6O[C@H](CO)[C@@H](O)[C@H](O)[C@H]6O)CC[C@]5(C)[C@H]4CC[C@]3(C)[C@@H]12 [Compound I, (25S)-26-O-β-D-glucopyranosyl-5β-furost-20(22)-ene-3β,26-diol-3-O-β-D-glucopyranosyl(1→2)-β-D-galactopyranoside]
[1]; 5 mg/ml, ESR, Fenton reaction
  Scavenging rate: 23.3%
[1]; Fe^2++H2O2
  Scavenging of hydroxyl free radicals produced by Fenton reaction (in words): could scavenge
[2]
  Effect on the basilar artery (dilation): no obvious effect

## CC1=C(CC[C@H](C)CO[C@@H]2O[C@H](CO)[C@@H](O)[C@H](O)[C@H]2O)O[C@H]2C[C@H]3[C@@H]4CC[C@@H]5C[C@@H](O[C@@H]6O[C@H](CO)[C@@H](O)[C@H](O)[C@H]6O[C@@H]6O[C@H](CO)[C@@H](O)[C@H](O)[C@H]6O)CC[C@]5(C)[C@H]4CC[C@]3(C)[C@@H]12 [Compound II, (25S)-26-O-β-D-glucopyranosyl-5β-furost-20(22)-ene-3β,26-diol-3-O-β-D-glucopyranosyl(1→2)-β-D-glucopyranoside]
[1]; 5 mg/ml, ESR, Fenton reaction
  Scavenging rate: 40.0%
[1]; Fe^2++H2O2
  Scavenging of hydroxyl free radicals produced by Fenton reaction (in words): could scavenge
[2]
  Effect on the basilar artery (dilation): no obvious effect

Reference: US6593301B1, “Use of steroidal saponins for the prophylaxis or treatment of dementia, and novel steroidal saponin compounds” (Institute of Radiation Medicine, priority 2000, dated 2003)
